From ChEMBL document CHEMBL3611993, “Design, synthesis and biological activities of novel oxazolo[4,5-g]quinazolin-2(1H)-one derivatives as EGFR inhibitors” (Eur J Med Chem, 2015)
Calls of active or inactive are those of the source. The rule behind the calls is not given here.

Columns and labels:
[1] = target: Epidermal growth factor receptor (Homo sapiens, UniProt P00533); assay: Inhibition of EGFR (unknown origin) assessed as incorporation of 33Pi after 1 hr by ELISA
A498 = assay: Antiproliferative activity against human A498 cells expressing EGFR and Src after 48 hrs by SRB assay; format: functional, cell-based; conditions: A498, 48 h
[2] = test system: Lewis lung carcinoma cell line; assay: Antitumor activity against mouse LLC cells allografted in SCID mouse assessed as extension of survival period at 100 mg/kg, po qd for 14 days; format: functional, organism-based
[3] = test system: Lewis lung carcinoma cell line; assay: Antitumor activity against mouse LLC cells allografted in SCID mouse assessed as inhibition of tumor growth at 100 mg/kg, po qd for 14 days; format: functional, organism-based
Mus musculus [4] = assay: Toxicity in mouse LLC cells allografted SCID mouse assessed as mortality at 100 mg/kg, po qd for 14 days; format: organism-based; conditions: in vivo, 336 h
KB = assay: Antiproliferative activity against human KB cells expressing EGFR and Src after 48 hrs by SRB assay; format: functional, cell-based
Mus musculus [5] = assay: Toxicity in mouse LLC cells allografted SCID mouse assessed as change in body weight at 100 mg/kg, po qd for 14 days; format: organism-based; conditions: in vivo, 336 h

Epidermal growth factor receptor, sequence (P00533 whole entry): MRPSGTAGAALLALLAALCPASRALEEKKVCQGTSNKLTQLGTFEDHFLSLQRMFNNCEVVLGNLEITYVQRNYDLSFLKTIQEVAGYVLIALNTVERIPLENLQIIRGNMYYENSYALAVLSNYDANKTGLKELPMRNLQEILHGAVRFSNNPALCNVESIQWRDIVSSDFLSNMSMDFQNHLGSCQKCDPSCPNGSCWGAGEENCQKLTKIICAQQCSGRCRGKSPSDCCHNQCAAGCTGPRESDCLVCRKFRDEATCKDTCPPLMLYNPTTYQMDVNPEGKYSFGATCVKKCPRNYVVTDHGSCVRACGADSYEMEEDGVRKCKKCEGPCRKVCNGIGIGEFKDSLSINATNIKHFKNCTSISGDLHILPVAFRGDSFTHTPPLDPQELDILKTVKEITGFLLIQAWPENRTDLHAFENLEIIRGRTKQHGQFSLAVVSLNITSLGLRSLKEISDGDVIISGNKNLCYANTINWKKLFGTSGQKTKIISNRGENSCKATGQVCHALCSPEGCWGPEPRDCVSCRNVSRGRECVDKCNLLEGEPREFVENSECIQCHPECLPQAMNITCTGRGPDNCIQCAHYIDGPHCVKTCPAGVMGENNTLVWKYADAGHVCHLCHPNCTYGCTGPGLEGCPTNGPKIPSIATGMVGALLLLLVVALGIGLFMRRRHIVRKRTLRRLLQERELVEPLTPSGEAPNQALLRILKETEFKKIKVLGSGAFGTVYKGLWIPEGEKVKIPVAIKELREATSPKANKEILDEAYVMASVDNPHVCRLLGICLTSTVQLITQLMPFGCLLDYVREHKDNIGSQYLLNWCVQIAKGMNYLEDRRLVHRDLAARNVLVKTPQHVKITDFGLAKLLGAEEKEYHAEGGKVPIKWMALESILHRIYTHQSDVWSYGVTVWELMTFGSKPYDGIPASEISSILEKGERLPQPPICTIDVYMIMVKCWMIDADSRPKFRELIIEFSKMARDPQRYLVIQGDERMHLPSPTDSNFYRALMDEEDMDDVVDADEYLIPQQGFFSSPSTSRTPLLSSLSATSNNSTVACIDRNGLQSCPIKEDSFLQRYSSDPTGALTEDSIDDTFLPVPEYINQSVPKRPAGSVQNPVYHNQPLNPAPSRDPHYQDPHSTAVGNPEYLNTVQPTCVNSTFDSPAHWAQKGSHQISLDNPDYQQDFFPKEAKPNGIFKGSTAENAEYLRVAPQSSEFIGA

Row | Compound | IC50 [1] | IC50 (A498) | IC50 (KB) | also measured
1 | CCOC(=O)CCCn1c(=O)oc2cc3ncnc(Nc4cc(C)cc(C)c4)c3cc21 | 1.5 µM |  |  | 
2 | CCOC(=O)CCCn1c(=O)oc2cc3ncnc(Nc4cccc(O)c4)c3cc21 | 0.0087 µM | 7.6 µM | 3.7 µM | Activity [2]: inactive; growth inhibition (GI) [3]: Active; Activity (Mus musculus [4]): Non-toxic; Activity (Mus musculus [5]): Toxic
3 | COCCn1c(=O)oc2cc3ncnc(Nc4ccc(S(N)(=O)=O)cc4)c3cc21 | > 10 µM |  |  | 
4 | COCCn1c(=O)oc2cc3ncnc(Nc4ccc(Cl)cc4)c3cc21 | > 10 µM |  |  | 
5 | CCOC(=O)CCCn1c(=O)oc2cc3ncnc(Nc4ccc(C(=O)OCc5ccc(C#N)cc5)cc4)c3cc21 | > 10 µM |  |  | 
6 | COCCn1c(=O)oc2cc3ncnc(Nc4ccc(OCc5ccc(Cl)cc5)c(Cl)c4)c3cc21 | 1.3 µM | 6.2 µM | 6.1 µM | 
7 | CCOC(=O)CCCn1c(=O)oc2cc3ncnc(Nc4ccc(OCc5ccccc5)c(Cl)c4)c3cc21 | > 10 µM |  |  | 
8 | CCOC(=O)c1ccc(O)c(Nc2ncnc3cc4oc(=O)n(CCOC)c4cc23)c1 | 0.44 µM | 17.1 µM | 6.3 µM | 
9 | COCCn1c(=O)oc2cc3ncnc(Nc4cccc(C(C)=O)c4)c3cc21 | 0.56 µM |  |  | 
10 | C#Cc1cccc(Nc2ncnc3cc4oc(=O)n(CCOC)c4cc23)c1 | 0.19 µM |  |  | 
11 | C#Cc1cccc(Nc2ncnc3cc4oc(=O)n(CCCC(=O)OCC)c4cc23)c1 | 5.7 µM |  |  | 
12 | CCOC(=O)CCCn1c(=O)oc2cc3ncnc(Nc4ccc(OCc5ccc(OC)cc5)c(Cl)c4)c3cc21 | > 10 µM |  |  | 
13 | CCOC(=O)CCCn1c(=O)oc2cc3ncnc(Nc4ccc(Cl)cc4)c3cc21 | 1.2 µM |  |  | 
14 | CCOC(=O)CCCn1c(=O)oc2cc3ncnc(Nc4ccc(F)c(F)c4)c3cc21 | 0.14 µM | 36.4 µM | 17.9 µM | 
15 | CCOC(=O)CCCn1c(=O)oc2cc3ncnc(Nc4ccccc4)c3cc21 | > 10 µM |  |  | 
16 | CCOC(=O)CCCn1c(=O)oc2cc3ncnc(Nc4ccc(C)cc4)c3cc21 | > 10 µM |  |  | 
17 | CCOC(=O)CCCn1c(=O)oc2cc3ncnc(Nc4ccc(OCc5ccc(Cl)cc5)c(Cl)c4)c3cc21 | 0.053 µM |  |  | 
18 | COCCn1c(=O)oc2cc3ncnc(Nc4ccc(OC)cc4)c3cc21 | 5.1 µM | 33.5 µM | 11.7 µM | 
19 | CCOC(=O)CCCn1c(=O)oc2cc3ncnc(Nc4ccc(O)cc4)c3cc21 | 0.02 µM | 15.2 µM | 11.1 µM | 
20 | COCCn1c(=O)oc2cc3ncnc(Nc4ccc(F)c(Cl)c4)c3cc21 | 0.47 µM |  |  | 

Row | Compound | IC50 [1] | IC50 (A498) | IC50 (KB) | also measured
21 | CCOC(=O)CCCn1c(=O)oc2cc3ncnc(Nc4ccc(OCC)cc4)c3cc21 | > 10 µM |  |  | 
22 | COCCn1c(=O)oc2cc3ncnc(Nc4ccc(C(C)(C)C)cc4)c3cc21 | > 10 µM |  |  | 
23 | CCOC(=O)CCCn1c(=O)oc2cc3ncnc(Nc4ccc(C(C)(C)C)cc4)c3cc21 | > 10 µM |  |  | 
24 | CCOC(=O)CCCn1c(=O)oc2cc3ncnc(Nc4ccc(OCc5ccccn5)cc4)c3cc21 |  | 47 µM | 16.6 µM | 
25 | COCCn1c(=O)oc2cc3ncnc(Nc4ccc(F)c(F)c4)c3cc21 | 0.026 µM | 17.6 µM | 1.1 µM | 
26 | CCOC(=O)CCCn1c(=O)oc2cc3ncnc(Nc4ccc(S(N)(=O)=O)cc4)c3cc21 | > 10 µM | 8 µM | 18.7 µM | 
27 | CCOC(=O)CCCn1c(=O)oc2cc3ncnc(N[C@H](C)c4ccccc4)c3cc21 | > 10 µM |  |  | 
28 | COCCn1c(=O)oc2cc3ncnc(Nc4ccc(OC)c(OC)c4)c3cc21 | 5.5 µM |  |  | 
29 | CCOC(=O)CCCn1c(=O)oc2cc3ncnc(Nc4ccc(OC)c(OC)c4)c3cc21 | > 10 µM |  |  | 
30 | CCOC(=O)CCCn1c(=O)oc2cc3ncnc(Nc4ccc(OCc5nccc(OCC(F)(F)F)c5C)cc4)c3cc21 | 0.78 µM |  |  | 
31 | COCCn1c(=O)oc2cc3ncnc(Nc4cccc(OC(C)C)c4)c3cc21 | > 10 µM |  |  | 
32 | C#Cc1cccc(Nc2ncnc3cc(OCCOC)c(OCCOC)cc23)c1 [ERLOTINIB] |  |  |  | growth inhibition (GI) [3]: Active; Activity (Mus musculus [4]): Non-toxic
33 | CCOC(=O)CCCn1c(=O)oc2cc3ncnc(Nc4ccc(OC(C)C)cc4)c3cc21 | 0.16 µM | 41.1 µM | 18.6 µM | 
34 | CCOC(=O)CCCn1c(=O)oc2cc3ncnc(NCc4ccccc4)c3cc21 | > 10 µM |  |  | 
35 | COCCn1c(=O)oc2cc3ncnc(Nc4ccc(OCc5nccc(OCC(F)(F)F)c5C)cc4)c3cc21 | 0.34 µM |  |  | 
36 | CCOC(=O)CCCn1c(=O)oc2cc3ncnc(Nc4cc(C(=O)OCC)ccc4O)c3cc21 | 0.0073 µM | 61.6 µM | 19.5 µM | 
37 | CCOC(=O)CCCn1c(=O)oc2cc3ncnc(Nc4ccc(F)c(Cl)c4)c3cc21 | 7.8 µM |  |  | 
38 | CCOC(=O)CCCn1c(=O)oc2cc3ncnc(Nc4ccc5[nH]ncc5c4)c3cc21 | 0.13 µM | 26.8 µM | 38.4 µM | 
39 | CCOC(=O)CCCn1c(=O)oc2cc3ncnc(Nc4ccc(C(=O)OCc5ccc(Cl)cc5)cc4)c3cc21 |  | 8.7 µM | 5.5 µM | 
40 | CCOC(=O)CCCn1c(=O)oc2cc3ncnc(N[C@@H](C)c4ccccc4)c3cc21 | > 10 µM |  |  | 
